Assay results published in patent publication US20240156898A1, “METHODS AND COMPOSITIONS FOR TREATING OCULAR DISORDERS AND DISEASES” (ONL Therapeutics, Inc., priority 2021, published 2024).
Residues, ends and D or L forms follow the SMILES beside them.

Key:
[1] = minipig, in vivo
Experimental: Seven animals received a repeat IVT dose at 2 mg/mL (0.1 mg/eye) on Day 90. […] Vitreous humor, retina, and choroid were collected on days 1, 7, 14, 28, and 88.

in vivo = settings: rabbit
Experimental: (§1) Body weights were measured and recorded prior to first dose, approximately weekly (for surviving animals through Week 12), and prior to euthanasia. […] Ophthalmic examinations were performed using the Hackett-McDonald Scoring System on Days 0, 7, 14, 28, 90, 97, 151, and 168. Pharmacokinetic analyses were performed on the vitreous humor concentration data.
(§2) Seven animals received a repeat IVT dose at 2 mg/mL (0.1 mg/eye) on Day 90.
(§3) Vitreous humor, retina, and choroid were collected on days 1, 7, 14, 28, 42, 61, 90, 97, 151, and 168. Eyes were enucleated, snap frozen using liquid nitrogen, and kept on dry ice or frozen at −80° C. until dissected for collection of aqueous humor, vitreous humor, retina, choroid, iris-ciliary body (ICB), and lens.
(§4) To homogenize ocular tissue samples, weighed amounts of control bovine vitreous humor, retina, and choroid were homogenized in USA scientific impact resistant microtubes containing 2.8 mm ceramic beads. Unknown rabbit vitreous humor, retina, and choroid samples were homogenized in USA scientific impact resistant microtubes containing 2.8 mm ceramic beads. Each vitreous humor sample was homogenized after the addition of 5000 microliters (uL) diluent (acetonitrile: water: 1 M hydrochloric acid (70:20:10, v/v/v). Retina tissues were homogenized after the addition of diluent (IPA:NH4OH (1000:1, v/v)) at a 1:5 ratio (parts tissue to parts diluent), and choroid samples were homogenized following addition of diluent at a 1:19 ratio. Tissues were homogenized at 5500 rpm for 3×30 second cycles with 20 second pauses between cycles until homogenized. Choroid went through two runs of homogenization, and retina and vitreous humor samples went through one run of homogenization.
(§5) Preparation of Standards, Unknowns, Blanks, and Blanks with Internal Standard for Vitreous Humor Analysis: • In a polypropylene tube, 10 uL of working calibration standard was added to 90 uL control blank vitreous humor. For blanks and blanks with internal standard, 100 uL of control blank bovine vitreous humor was added. Five hundred (500) uL of acetonitrile: water:1M hydrochloric acid (70:20:10, v/v/v) was added to each standard and 500 uL of acetonitrile: water:1M hydrochloric acid (70:20:10, v/v/v) was added to blanks. Standards and blanks were vortex mixed. One hundred (100) uL of each standard, blank or unknown vitreous humor sample homogenate was then aliquoted. One hundred (100) uL of IPA:NH4OH (1000:1, v/v) was added to each sample. The samples were vortex mixed for 1 minute, then centrifuged for 10 minutes at 4,000 rpm (4° C.). […] Fifty (50.0) uL of acetonitrile:water:1M hydrochloric acid (70:20:10, v/v/v) was added to blank without IS. Two hundred (200) uL of water was added. The samples were then mixed using a multichannel pipette, and supernatant transferred to an autosampler plate for analysis.
(§6) In a 96-well plate, 100 uL of control retina or choroid homogenate was added for calibration samples and unknowns. For blanks and blanks with internal standard, 100 uL of control bovine retina or choroid tissue homogenate was added. […] Twenty (20) uL acetonitrile:water:formic acid (25:75:0.1, v/v/v) was added to each blank without IS sample. Three-hundred (300) uL of IPA:NH4OH (1000:1, v/v) was added to each choroid or retina sample. The samples were then vortex mixed for 5 minutes. The samples were allowed to set for 15 minutes, vortex mixed for an additional minute, and centrifuged for 10 minutes at 4,000 rpm (4° C.).
(§7) Three-hundred-fifty (350) uL of each sample was then aliquoted to a 96-well plate. The samples were dried with nitrogen at 35° C.

[2] = Ocular tissue concentration of ONL1204 after intravitreal injection in rabbit eye (LC-MS/MS); settings: 0.1 mg/eye
Experimental: as §1, §2, §3, §4, §5, §6, §7

[3] = tested on: retinal pigment epithelial cell death; experiment: Sodium iodate (NaIO3) challenge study, duration of protection, fluorescein angiography lesion area; settings: rabbit
Experimental: NaIO3 solution: • Challenge Article: NaIO3 • Administration Route: IV • Frequency of Administration: Day 4 (day 7 endpoint), 14 (day 17 endpoint), 28 (day 31 endpoint), 59 (day 61 endpoint), or 78 (day 81 endpoint (rechallenged group)). • Solution: 20 mg/ml in 0.9% Injectable Saline • Dose: 17 or 18 mg/kg body weight
Test System: • Species: Rabbit • Expected Age: Animals were between 3 and 4 months of age • Expected Body Range: Approximately 2.0 Kg, Identification Animals were individually • housed and identified via cage card and ear ID and/or ear tattoo. • Experimental History: Purpose-bred and experimentally naïve at the onset of the study
Intravitreal Injection: • On Day 0, eyes were anesthetized with proparacaine and pupils dilated with tropicamide. Animals were anesthetized with isoflurane vapors to effect. A few drops of Betadine were placed on the eye and then rinsed with ophthalmic eye wash. A clean speculum was placed in the eye (rinsed in Betadine and sterile saline) and the temporal sclera was marked with calipers 3.5 mm from the corneal border. […] In order to reduce the potential for reflux of the test article the needle remained in the vitreous for at least 10 seconds following injection. No reflux was noted on the dosing record.
Model Induction: • A 20 mg/ml solution of NaIO3 was prepared in 0.9% injectable saline aliquoted into 4 batches and frozen at −20° C. For Groups 1-8, 1 batch of NaIO3 was thawed prior to injection. Groups 9-10 were added after the Study was underway therefore a new solution of 20 mg/ml NaIO3 was prepared in 0.9% injectable saline and frozen at −20° C. and thawed prior to injection. Test article and NaIO3 were injected into the left ear.
Animals were weighed and anesthetized with isoflurane vapors to effect. The left ear was shaved and swabbed with 10% alcohol prior to injection. An indwelling catheter was placed in the left marginal ear vein and flushed with 0.9% injectable saline. […]
Data Analysis: • The area of RPE depigmentation is reported as a unitless value provided by the ImageJ software. […] The resulting area was then measured.

CC[C@H](C)[C@H](NC(=O)[C@H](Cc1ccc(O)cc1)NC(=O)[C@H](CC(N)=O)NC(=O)[C@@H](NC(=O)[C@H](C)NC(=O)CNC(=O)[C@H](CC(C)C)NC(=O)[C@H](Cc1ccc(O)cc1)NC(=O)[C@@H](NC(=O)[C@H](Cc1cnc[nH]1)NC(=O)[C@@H](N)Cc1cnc[nH]1)[C@@H](C)CC)C(C)C)C(=O)N[C@@H](Cc1ccc(O)cc1)C(N)=O [ONL1204] (H-HHIYLGAVNYIY-NH2)
detection in the vitreous humor across all time points analyzed [1]: detected in the vitreous humor across all time points analyzed | half-life (in vivo): 280 days | tissue level at time at 4032 h ([2]; retina): 8.4 ng/g | tissue level at time at 24 h ([2]; retina, Conc. of ONL1204 Retina, single IVT 0.1 mg/eye, Day 1, LLOQ 3.00 ng/g): 12.7 ng/g | tissue level at time at 168 h ([2]; retina, Conc. of ONL1204 Retina, single IVT 0.1 mg/eye, Day 7, LLOQ 3.00 ng/g): 85.2 ng/g | tissue level at time at 336 h ([2]; retina, Conc. of ONL1204 Retina, single IVT 0.1 mg/eye, Day 14, LLOQ 3.00 ng/g): 5.95 ng/g | half-life ([2]; vitreous humor, other: intravitreal injection): 279 days | lesion size vs negative controls and vs 25 ug ([3]; 100 ug per eye IVT on Day 0, NaIO3 challenge Day 14): significantly smaller lesion size | lesion size vs negative control animals and vs 25 ug ([3]; 100 ug per eye IVT on Day 0, NaIO3 challenge Day 28): significantly smaller lesion size | mean lesion size across challenge time points ([3]; 25 or 100 ug per eye IVT on Day 0, NaIO3 challenge Days 4 to 59): substantive reduction
